# Entries after “also recorded” stand apart in the source; their conditions may differ.
# Legend:
# [1] = test system: Langendorff-perfused rabbit hearts; test: Calcium alternans by optical mapping in Langendorff-perfused rabbit hearts stressed by VF (Example 1); settings: for CaAR (calcium alternans ratio) / SD of CaAR (surrogate for spatial dyssynchrony): azumolene 20 μM; for SD of CaAR (surrogate for spatial dyssynchrony): n=8
# Description: The term “cardiac dyssynchrony” as used herein means improper synchronization of calcium cycling in the heart or a part thereof, including for example temporal dyssynchrony and/or spatial dyssynchrony, optionally due to calcium leak from ryanodine type 2 receptor (RyR2) channels, leading to decreased calcium uptake and/or release in the sarcoplasmic reticulum (SR). RyR2 are found primarily in cardiac muscle and are a major mediator for SR release of calcium ions. Spatio-temporal dyssynchrony of calcium alternans can be measured by calculating a calcium alternans ratio (CaAR) for temporal mechanical dyssynchrony or by measuring the standard deviation (SD) of CaAR as a surrogate for spatial mechanical dyssynchrony. CaAR can be calculated as the amplitude of a Ca peak divided by the amplitude of a following Ca peak in a calcium transient measurement such as in FIG. 5. The smallest amplitude of Ca peak is divided by the largest amplitude of Ca peak. The larger the ratio the more similar the peak sizes. A ratio of 1 indicates no calcium alternans. Ratios of less than 1, optionally 0.8, 0.7 etc are indicative of cardiac dyssynchrony. Similarly mean standard deviations in calcium alternans ratios of greater than 0.05, greater than 0.06 or greater than 0.07 etc are indicative of cardiac dyssynchrony.
# Their effect on temporal calcium alternans ratio (CaAR) before and after ventricular fibrillation (VF) (as a surrogate for temporal mechanical dyssynchrony) and standard deviation (SD) of CaAR from the anterior wall of left ventricular, which is used as a surrogate for spatial mechanical dyssynchrony, were assessed. […] Simultaneous optical mapping was performed. Calcium alternans are defined as beat-to-beat variability of 10% or more in calcium transient amplitudes.
# animal hearts = test: Optical mapping and LVDP in hearts subjected to myopathic insults, azumolene pre-treated or not (Example 3); settings: for calcium alternans ratio map values: scale 0.00 to 0.40
# Experimental: FIGS. 6A and 6B are a schematic and images, respectively, of the experimental protocol of animal hearts, pre-treated or not with azumolene, subjected to myopathic insults.
# The effect of azumolene was further investigated. Optical mapping and left ventricular developed pressure (LVDP) were measured at baseline and following inducement of myopathic insults to the hearts (see FIGS. 6A and 6B). […] FIGS. 8A and 8B show the occurrence of spatial dyssynchronic in untreated compared to azumolene-treated hearts.
# [2] = test system: ventricular arrhythmia swine model; settings: previous work [4]; cited from earlier work
# [3] = test system: patients without known cardiac diseases; test: Safety of chronic oral dantrolene: ECG, echo, Holter, stress test in patients (Example 4)
# [4] = test system: patients without known cardiac diseases; settings: human, in vivo
# [5] = test system: patients without known cardiac disease; test: Safety of chronic oral dantrolene, 10-year experience: ECG and echocardiogram (Example 5)
# Description: If more than 1 electrocardiogram and/or echocardiogram were available for any single patient, all were studied (to assess for any abnormality), but only the latest (with the longest therapy duration) was included in the analysis.
# [6] = azumolene pretreatment, following myopathic insults, FIG. 9
# [7] = both, human, in vivo, 10.9 years
compound,measurement,setting,value
O=C1CN(/N=C/c2ncc(-c3ccc(Br)cc3)o2)C(=O)N1 [azumolene],heterogeneity in calcium alternans in response to myopathic stress,[1],minimizes heterogenity in calcium alternans
same,CaAR (calcium alternans ratio),[1]; after 1st VF,0.97±0.02
same,SD of CaAR (surrogate for spatial dyssynchrony),[1]; after 1st VF,0.025±0.003
same,CaAR (calcium alternans ratio),[1]; after 2nd VF,0.94±0.02
same,SD of CaAR (surrogate for spatial dyssynchrony),[1]; after 2nd VF,0.039±0.004
same,spatial calcium release dyssynchrony (calcium release tracings),"[1]; azumolene-treated vs untreated hearts after VF, FIG. 2",reduced spacial calcium release dyssynchrony; also recorded: spatial calcium release disordering is abrogated
same,calcium alternans in ratio maps,"[1]; post 1st VF at 6.0 Hz, FIG. 5D vs 5B",fewer calcium alternans
same,mean calcium alternans index,"animal hearts; after myopathic insults, FIG. 7",untreated-hearts increased significantly compared to azumolene-treated hearts
same,LVDP,animal hearts; [6],significantly improved
same,dp/dtmax,animal hearts; [6],significantly improved
same,calcium alternans ratio map values,"animal hearts; azumolene-treated heart at baseline, FIG. 8A",0.025 to 0.05
same,calcium alternans ratio map values,"animal hearts; azumolene-treated heart post myopathic insults, FIG. 8A",0.05 to 0.1
same,mean of standard deviation,"animal hearts; post myopathic insults, FIG. 8B",significantly increased in the control group post myopathic insults compared to the azumolene-treated group
same,spatial calcium release dyssynchrony,"animal hearts; vs untreated hearts, FIG. 8A",reduce spatial calcium release dyssynchrony
O=C1CN(/N=C/c2ccc(-c3ccc([N+](=O)[O-])cc3)o2)C(O)=N1 [dantrolene],effect on the QT,[2],did not affect the QT
same,heterogeneity in calcium alternans in response to myopathic stress,[1],minimizes heterogenity in calcium alternans
same,PR,[3]; chronic oral dantrolene (>3 months),173 ± 19 ms
same,"major cardiac events (life-threatening arrhythmia, sudden death, myocardial infarction)","[3]; during dantrolene therapy, most >5 years",No major cardiac events
same,LV size and function,[4],normal
same,arrhythmia in Holter or stress tests,[4],No major arrhythmia
same,rest of the depolarization and repolarization parameters,[4],within normal limits
same,rhythm in ECGs,[4],sinus rhythm
same,JTc,[4]; po,304 ± 79 ms
same,QRS,[4]; po,98 ± 10 ms
same,"QRS or QTc prolongation, arrhythmia, pauses, significant cardiac events",[4]; po,"did not have QRS or QTc prolongation, arrhythmia, pauses, or significant cardiac events"
same,effect on LV systolic function,[4]; po,No detrimental effect
same,mean heart rate,[4]; po,67 (±14)
same,Number of patients with PR >200 ms,[5]; [7],1 (5) n (%)
same,Number of patients with QTc >460 ms,[5]; [7],1 (5) n (%)
same,QTc of the patient with QTc >460 ms,"[5]; female, human, in vivo",465 ms
same,Absolute change in average PR ± SD,"[5]; human, in vivo",12 ± 8 (p = 0.14) ms
same,Absolute change in average QRS ± SD,"[5]; human, in vivo","4 ± 3, (p = 0.71) ms"
same,Absolute change in average QTc ± SD,"[5]; human, in vivo","12 ± 17, (p = 0.27) ms"
same,PR of the patient with PR >200 ms,"[5]; human, in vivo",222 ms
same,QRS or QTc prolongation,[5]; in vivo,did not have QRS or QTc prolongation
same,conduction and repolarization parameters,[5]; in vivo,within normal limits
same,dose-related QTc prolongation,[5]; in vivo,No dose-related QTc prolongation
same,left ventricular (LV) size and systolic function,[5]; in vivo,normal
same,rhythm in electrocardiograms,[5]; in vivo,sinus rhythm
same,"major cardiac events (serious arrhythmia, sudden death, or myocardial infarction)",[5]; mean 10.9±6 years follow-up,no major cardiac events

# Reference: patent publication US11123328B2 (UNIVERSITY HEALTH NETWORK, priority 2017, dated 2021)
